Source: patent US20100016232A1, “Treatment Of Inflammatory Diseases With Mammal Beta Defensins” (Novozymes A/S, priority 2008, published 2010)
Marks after values point to notes of the source that are not given here.

What was measured:
Format in all cases: in vivo
[1] = system: DSS-induced colitis in the mouse; assay: 10-day DSS-induced colitis, colon histological score (Example 6)
Experimental: (§1) Two sections (proximal and distal) of colon were taken from each animal and preserved in neutral buffered formalin for subsequent histological analysis (haematoxylin and eosin staining) according to the following scoring system:
(§2) Example 6 was carried out essentially as described in Example 5. The differences are indicated below.
(§3) Animals were divided into 9 experimental groups.
Two sections (proximal and distal) of colon were taken from each animal, processed for histological analysis (haematoxylin and eosin staining), and scored by a blind observer according to the scoring system described above.

[2] = system: DSS-induced colitis in the mouse; assay: 10-day DSS-induced colitis, colon histological score (Example 5); conditions: 1 mg/kg p.o. daily, day 10
Text: (§4) Animals were divided into 5 experimental groups.
Their colons were removed and their length and weight measured after exclusion of the caecum.
as §1
Two sections (proximal and distal) of colon were taken from each animal, processed for histological analysis (haematoxylin and eosin staining) and scored by a blind observer according to the histological scoring system described above.

[3] = system: DSS-induced colitis in the mouse; assay: 10-day DSS-induced colitis, Disease Activity Index (Example 6); set-up: key: clinical Disease Activity Index (stool, bleeding, weight loss)
Experimental: (§5) Daily clinical assessment of DSS-treated animals was carried out, with the calculation of a validated clinical Disease Activity Index (DAI) ranging from 0 to 4 according to the following parameters: stool consistency, presence or absence of rectal bleeding and weight loss:
as §2, §3
The animals in group F received one dose i.v. and another dose s.c. (12 hours after the i.v. dose) of the corresponding test item for 10 consecutive days.
The animals in group G received one dose every two days of the corresponding test item for 10 consecutive days.
Methylprednisolone was given orally at a dose of 1 mg/kg (group H) and 10 mg/kg (group J) in a dosing volume of 5 ml/kg body weight, once daily for 10 consecutive days.

[4] = system: DSS-induced colitis in the mouse; assay: 10-day DSS-induced colitis, Disease Activity Index (Example 5); conditions: 1 mg/kg p.o. daily
Experimental: as §4
Colitis was induced in mice by supplementing their drinking water with DSS 2% for 7 days.
as §5
Bodyweight loss was calculated as the percent difference between the original bodyweight (Day 1) and the actual bodyweight on each experimental day (2-10).
The appearance of diarrhoea is defined as mucus/faecal material adherent to anal fur. Rectal bleeding is defined as diarrhoea containing visible blood/mucus or gross rectal bleeding. The maximum score of the DAI each day is 12.

C[C@H]1C[C@@H]2[C@H]([C@@H](O)C[C@@]3(C)[C@H]2CC[C@]3(O)C(=O)COC(=O)CCC(=O)O)[C@@]2(C)C=CC(=O)C=C12 [Methylprednisolone 21-hemisuccinate, reference compound]
Histology Score Distal Colon, mean ([1]; Group H, 1 mg/kg p.o.): 3.00***
Histology Score Proximal Colon, mean ([1]; Group H, 1 mg/kg p.o.): 1.40
Histology Score Distal Colon, mean ([1]; Group J, 10 mg/kg p.o.): 2.70***
Histology Score Proximal Colon, mean ([1]; Group J, 10 mg/kg p.o.): 1.40
Histology Score Distal Colon [2]: 3.70
Histology Score Proximal Colon [2]: 2.80*
Histology Score Proximal Colon ([2]; listed as prednisolone): 2.8±0.5
DAI score, mean ([3]; Group H, 1 mg/kg p.o., Day 1): 0.00
DAI score, mean ([3]; Group H, 1 mg/kg p.o., Day 2): 0.50
DAI score, mean ([3]; Group H, 1 mg/kg p.o., Day 3): 0.50
DAI score, mean ([3]; Group H, 1 mg/kg p.o., Day 4): 0.40
DAI score, mean ([3]; Group H, 1 mg/kg p.o., Day 5): 1.10
DAI score, mean ([3]; Group H, 1 mg/kg p.o., Day 6): 3.80
DAI score, mean ([3]; Group H, 1 mg/kg p.o., Day 7): 5.90
DAI score, mean ([3]; Group H, 1 mg/kg p.o., Day 8): 6.40
DAI score, mean ([3]; Group H, 1 mg/kg p.o., Day 9): 5.60*
DAI score, mean ([3]; Group H, 1 mg/kg p.o., Day 10): 5.60*
DAI score, mean ([3]; Group J, 10 mg/kg p.o., Day 1): 0.00
DAI score, mean ([3]; Group J, 10 mg/kg p.o., Day 2): 0.30
DAI score, mean ([3]; Group J, 10 mg/kg p.o., Day 3): 0.70
DAI score, mean ([3]; Group J, 10 mg/kg p.o., Day 4): 0.80
DAI score, mean ([3]; Group J, 10 mg/kg p.o., Day 5): 1.30
DAI score, mean ([3]; Group J, 10 mg/kg p.o., Day 6): 2.00
DAI score, mean ([3]; Group J, 10 mg/kg p.o., Day 7): 3.20**
DAI score, mean ([3]; Group J, 10 mg/kg p.o., Day 8): 4.80**
DAI score, mean ([3]; Group J, 10 mg/kg p.o., Day 9): 5.20*
DAI score, mean ([3]; Group J, 10 mg/kg p.o., Day 10): 4.00***
DAI score ([4]; Day 1): 0.00
DAI score ([4]; Day 2): 0.10
DAI score ([4]; Day 3): 0.00
DAI score ([4]; Day 4): 2.60
DAI score ([4]; Day 5): 2.50
DAI score ([4]; Day 6): 2.60
DAI score ([4]; Day 7): 3.10
DAI score ([4]; Day 8): 2.50*
DAI score ([4]; Day 9): 3.80*
DAI score ([4]; Day 10): 4.90**
